For series [1] the following is noted: cited from earlier work.
Series [2] can be described thus: DRV plasma trough concentration ([DRV]plasma) by UPLC-DAD in HIV-1 infected patients, by CYP3A5 genotype-based expression status. Format: in vivo, human. An excerpt: After a clinical assessment and in addition to the samples routinely collected for the clinical follow-up (viral load, CD4 cell count), two more blood samples were drawn immediately before drug intake, with the highest timing precision conceivable given the ambulatory context of the study recruitment. […] In order to obtain a post-intake delay as close as possible to the trough sampling time, each patient was personally contacted by phone a few days before the study visit to ensure not taking the medication prior to blood sampling.
Plasma was then collected and stored at -20°C until the day of quantification.
Genotype and allele frequencies were calculated and deviations from Hardy-Weinberg equilibrium (HWE) were evaluated using exact tests.
The patients were also classified into CYP3A5 expressors (CYP3A5*1 allele carriers) and CYP3A5 non-expressors (CYP3A5*3 homozygous).

The conditions of series [3]: addition of ETR 200mg bid to DRV/r 600/100mg bid; cited from earlier work.
The subject of a further series is HIV. Also on record: method as in PMID 17617270, PMID 17617271. Conditions: treatment-experienced patients, with optimized background regimen including DRV/r 600/100 mg BID; cited from earlier work.

With `CC(C)CN(C[C@@H](O)[C@H](Cc1ccccc1)NC(=O)O[C@H]1CO[C@H]2OCC[C@H]21)S(=O)(=O)c1ccc(N)cc1` [DRV, Darunavir], the “DRV PK parameters (in particular Ctrough and Cmax)” value in series [1] (DRV/r 600/100mg bid with ETR 100mg or 200mg bid, healthy volunteers) is given as “unchanged”. Further, the “decrease of plasma drug concentration by the drug-drug interaction” value in series [2] (CYP3A5 expressors versus non-expressors, DRV with ETR) was “more than 55%”. The “mean [DRV]plasma (geometric mean trough concentration)” value in series [2] (overall, all 135 patients) is 1805 ng/mL. Also, in series [2] (person, CYP3A5 expressor, DRV/r and ETR, detectable viral load), the “[DRV]plasma of a single patient” value was determined as 652 ng/mL. The “DRV plasma concentration (geometric mean)” value is recorded as “• 1486ng/ml • (CI95%:725–3044) • n = 5” in series [2] (subgroup DRV/r 600/100mg BID plus ETR n = 13, CYP3A5 expressors n = 5); “• 3141ng/ml • (CI95%: 2042–4831) • n = 8” in series [2] (subgroup DRV/r 600/100mg BID plus ETR n = 13, CYP3A5 non-expressors n = 8); “• 2411 • (CI95%: 1895–3067) • n = 19 ng/ml” in series [2] (subgroup DRV/r 600/100mg BID, CYP3A5 expressors n = 19); “• 2430 • (CI95%: 1817–3249) • n = 23 ng/ml” in series [2] (subgroup DRV/r 600/100mg BID, CYP3A5 non-expressors n = 23); “• 1693ng/ml • (CI95%:1314–2182) • n = 41” in series [2] (subgroup DRV/r 800/100mg QD, CYP3A5 expressors n = 41); “• 1498ng/ml • (CI95%: 1227–1828) • n = 52” in series [2] (subgroup DRV/r 800/100mg QD, CYP3A5 non-expressors n = 52). In addition, the “increase of DRV AUC” value in series [3] is given as 14%.
For the compound `Cc1cc(C#N)cc(C)c1Oc1nc(Nc2ccc(C#N)cc2)nc(N)c1Br` [ETR, Etravirine], in series [1] (DRV/r with ETR 100mg twice daily compared to ETR alone), the “decrease of ETR exposure” value is 37%. The “virological efficacy, immunological recovery and clinical progression versus placebo” value with HIV is “superiority”.

The values above are taken from article PMC5082792 (PLoS ONE, 2016).
